# Laboratory results reported in US12064459B2, “Compositions and methods for improving skin health and for the treatment and prevention of diseases, disorders and conditions associated with pathogenic microbes” (priority 2019, dated 2024).
# Like-named read-outs stand apart in the source and are kept apart here. Where a SMILES comes first, the peptide text is derived from it. Bridges are numbered along the chain shown (N, C = ends). [ ]: non-standard residue; d: D form. The star is where a group is joined. Ileψ(thiazoline)Cys = CC[C@H](C)[C@H](N)C1=N[C@H](C(=O)*)CS1; dOrn = NCCC[C@@H](N)C(=O)O
# Experiments:
# E. Coli ATCC25922 [1] = conditions: cited from earlier work
# E. Coli ATCC25922 [2] = test: Antibiotic MIC tests; assay type: cell-based; conditions: Escherichia coli
# DB00118 = test: Antibiotic MIC tests; assay type: cell-based, Janthinobacterium lividum; conditions: strain DB00118
# Experimental: (§1) The antibiotic resistance profile and MICs tests were performed using Janthinobacterium lividum grown from cultures purified and grown in vegitone LB broth.
# DB02378 = test: Antibiotic MIC tests; assay type: cell-based, Janthinobacterium lividum; conditions: strain DB02378
# Experimental: as §1
# DB00121 = test: Antibiotic MIC tests; assay type: cell-based, Janthinobacterium lividum; conditions: strain DB00121
# Experimental: as §1
# DB02473 = test: Antibiotic MIC tests; assay type: cell-based, Janthinobacterium lividum; conditions: strain DB02473
# Experimental: as §1
# [3] = tested on: Janthinobacterium lividum strains; test: Antibiotic MIC tests, resistance profile in words; assay type: cell-based; conditions: Table 7 and 8
# Experimental: as §1
# [4] = tested on: Janthinobacterium lividum strains; test: Internal antibiotic resistance tests (BD BBL Sensi-Disc, zone of inhibition); assay type: cell-based; conditions: all 5 strains; disc content per antibiotic (e.g. penicillin 10 IU); FIG. 5
# Experimental: One Janthinobacterium lividum colony of 3-day old grown in 50% BHI agar was mixed well in 1 ml of 1×PBS buffer, diluted 10× and 100×, respectively. 200 μl of diluted Janthinobacterium lividum cells were evenly plated onto R2A/BHI agar plates in triplicate in 150 mm petri dishes. Antibiotic discs (BD BBL Sensi-Disc antimicrobial susceptibility test discs) were dispensed using a Disc dispenser (BD BBL Sensi-Disc Designer Dispenser System, 12-Place). Plates were incubated for 2-3 days at room temperature and imaged at the end of incubation.
# The sensitivity of Janthinobacterium lividum to antibiotics is reflected by a clear zone of inhibition of Janthinobacterium lividum cells surrounding the antibiotic discs. The zone of inhibition was measured using ImageJ and was transformed into cm for analysis.
# [5] = Janthinobacterium lividum, read-out: MIC
Compound,"MIC, CLSI QC ranges (E. Coli ATCC25922 [1])",MIC (E. Coli ATCC25922 [2]),MIC (DB00118; [5]),MIC (DB02378; [5]),MIC (DB00121; [5]),MIC (DB02473; [5]),sensitivity of Janthinobacterium lividum strains to antibiotics [3],sensitivity of Janthinobacterium lividum to antibiotic discs [4],MIC (DB00118),MIC (DB02378),MIC (DB00121),MIC (DB02473)
NCC[C@H](O)C(=O)N[C@@H]1C[C@H](N)[C@@H](O[C@H]2O[C@H](CN)[C@@H](O)[C@H](O)[C@H]2O)[C@H](O)[C@H]1O[C@H]1O[C@H](CO)[C@@H](O)[C@H](N)[C@H]1O [Amikacin],0.5 to 4 µg/mL,2 µg/mL,2 µg/mL,2 µg/mL,1 µg/mL,2 µg/mL,–,–,–,–,–,–
C[C@H]1[C@H](NC(=O)/C(=N\OC(C)(C)C(=O)O)c2csc(N)n2)C(=O)N1S(=O)(=O)O [Aztreonam],–,0.25 µg/mL,32 µg/mL,16 µg/mL,16 µg/mL,16 µg/mL,less sensitive,–,–,–,–,–
CC[C@H](C)[C@H](N)C1=N[C@H](C(=O)N[C@@H](CC(C)C)C(=O)N[C@H](CCC(=O)O)C(=O)N[C@H](C(=O)N[C@H]2CCCCNC(=O)[C@H](CC(N)=O)NC(=O)[C@@H](CC(=O)O)NC(=O)[C@H](Cc3cnc[nH]3)NC(=O)[C@@H](Cc3ccccc3)NC(=O)[C@H]([C@@H](C)CC)NC(=O)[C@@H](CCCN)NC2=O)[C@@H](C)CC)CS1 [Bacitracin] ({Ileψ(thiazoline)Cys}-L[dE]IK[dOrn]I[dF]H[dD]N; lactam 4-C),–,> 64 µg/mL,> 64 µg/mL,> 64 µg/mL,> 64 µg/mL,> 64 µg/mL,resistant,–,–,–,–,–
O=C(N[C@H](CO)[C@H](O)c1ccc([N+](=O)[O-])cc1)C(Cl)Cl [Chloramphenicol],2 to 8 µg/mL,4 µg/mL,2 µg/mL,2 µg/mL,2 µg/mL,2 µg/mL,less sensitive,sensitive,–,–,–,–
O=C(O)c1cn(C2CC2)c2cc(N3CCNCC3)c(F)cc2c1=O [Ciprofloxacin],–,–,0.5 µg/mL,0.5 µg/mL,0.25 µg/mL,0.5 µg/mL,–,sensitive,–,–,–,–
CC[C@H]1OC(=O)[C@H](C)[C@@H](O[C@H]2C[C@@](C)(OC)[C@@H](O)[C@H](C)O2)[C@H](C)[C@@H](O[C@@H]2O[C@H](C)C[C@H](N(C)C)[C@H]2O)[C@](C)(O)C[C@@H](C)C(=O)[C@H](C)[C@@H](O)[C@]1(C)O [Erythromycin],–,64 µg/mL,15 µg/mL,8 µg/mL,8 µg/mL,15 µg/mL,–,sensitive,–,–,–,–
C[C@@H](O)[C@H]1C(=O)N2C(C(=O)O)=C(S[C@@H]3CN[C@H](C(=O)N(C)C)C3)[C@H](C)[C@H]12 [Meropenem],–,< 0.063 µg/mL,2 µg/mL,2 µg/mL,8 µg/mL,2 µg/mL,less sensitive,–,–,–,–,–
[H]/N=C(/N)N[C@H]1[C@H](O)[C@@H](O)[C@H](O[C@@H]2O[C@@H](C)[C@](O)(C=O)[C@H]2O[C@@H]2O[C@@H](CO)[C@H](O)[C@@H](O)[C@@H]2NC)[C@@H](N/C(N)=N\[H])[C@@H]1O [streptomycin],–,–,–,–,–,–,–,sensitive,–,–,–,–
CN[C@H](CC(C)C)C(=O)N[C@H]1C(=O)N[C@@H](CC(N)=O)C(=O)N[C@H]2C(=O)N[C@H]3C(=O)N[C@H](C(=O)N[C@H](C(=O)O)c4cc(O)cc(O)c4-c4cc3ccc4O)[C@H](O)c3ccc(c(Cl)c3)Oc3cc2cc(c3O[C@@H]2O[C@H](CO)[C@@H](O)[C@H](O)[C@H]2O[C@H]2C[C@](C)(N)[C@H](O)[C@H](C)O2)Oc2ccc(cc2Cl)[C@H]1O [vancomycin],–,–,–,–,–,–,–,sensitive,–,–,–,–
Amoxicillin clavulanate,–,–,–,–,–,–,less sensitive,–,1 µg/mL,1 µg/mL,0.5 µg/mL,1 µg/mL
penicillin,–,–,–,–,–,–,–,sensitive,–,–,–,–
